Laboratory results as given in US20210070748A1, “INHIBITORS OF BRUTONS TYROSINE KINASE” (Pharmacyclics LLC, priority 2015, published 2021).

Tests used:
Format in all cases: biochemical
BTK-WT = biological target: T1, BTK-WT (Homo sapiens, UniProt Q06187); experiment: Btk in vitro inhibitory activity (one of Method A TR-FRET, Method B electrophoretic mobility shift, Method C radiometric filter binding); conditions: D-compounds panel data; read-out: IC50 BTK-WT
T1 construct: purified from insect cells as a full-length construct containing an N-terminal 6X-His tag; His6 (N); made in house; host or cells: insect cells (baculovirus Sf21 in Method B)

ITK = biological target: T2, ITK (Homo sapiens, UniProt Q08881); experiment: Inhibition of a panel of kinases, in vitro HotSpot kinase assay: ITK; conditions: D-compounds panel data; 1 μM ATP
T2 sequence (Q08881 1-620): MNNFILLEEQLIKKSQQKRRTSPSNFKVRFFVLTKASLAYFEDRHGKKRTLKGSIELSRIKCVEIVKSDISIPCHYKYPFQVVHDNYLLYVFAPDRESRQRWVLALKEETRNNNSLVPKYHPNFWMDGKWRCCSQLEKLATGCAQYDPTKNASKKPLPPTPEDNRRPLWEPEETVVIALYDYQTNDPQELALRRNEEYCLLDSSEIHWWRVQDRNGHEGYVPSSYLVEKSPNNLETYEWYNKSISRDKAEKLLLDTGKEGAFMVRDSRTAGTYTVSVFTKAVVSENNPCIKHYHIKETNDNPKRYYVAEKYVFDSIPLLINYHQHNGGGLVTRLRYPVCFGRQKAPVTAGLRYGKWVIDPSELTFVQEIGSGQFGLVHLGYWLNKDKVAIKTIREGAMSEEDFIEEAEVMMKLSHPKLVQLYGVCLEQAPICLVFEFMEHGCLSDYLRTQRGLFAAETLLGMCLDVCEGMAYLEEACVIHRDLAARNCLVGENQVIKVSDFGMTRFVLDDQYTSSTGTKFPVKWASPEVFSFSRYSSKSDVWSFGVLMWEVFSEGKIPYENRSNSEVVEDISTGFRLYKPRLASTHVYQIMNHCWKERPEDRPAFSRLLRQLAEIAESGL
Experimental: (§1) The degree of inhibition of a panel of kinases is determined using the in vitro HotSpot kinase assay (purified enzymes, ^33P-ATP, an appropriate substrate and 1 μM ATP).

SRC = SRC (Homo sapiens, UniProt P12931); experiment: Inhibition of a panel of kinases, in vitro HotSpot kinase assay: SRC; conditions: D-compounds panel data; 1 μM ATP
Experimental: as §1

TEC = biological target: T3, TEC (Homo sapiens, UniProt P42680); experiment: Inhibition of a panel of kinases, in vitro HotSpot kinase assay: TEC; conditions: D-compounds panel data; 1 μM ATP
T3 sequence (P42680 1-631): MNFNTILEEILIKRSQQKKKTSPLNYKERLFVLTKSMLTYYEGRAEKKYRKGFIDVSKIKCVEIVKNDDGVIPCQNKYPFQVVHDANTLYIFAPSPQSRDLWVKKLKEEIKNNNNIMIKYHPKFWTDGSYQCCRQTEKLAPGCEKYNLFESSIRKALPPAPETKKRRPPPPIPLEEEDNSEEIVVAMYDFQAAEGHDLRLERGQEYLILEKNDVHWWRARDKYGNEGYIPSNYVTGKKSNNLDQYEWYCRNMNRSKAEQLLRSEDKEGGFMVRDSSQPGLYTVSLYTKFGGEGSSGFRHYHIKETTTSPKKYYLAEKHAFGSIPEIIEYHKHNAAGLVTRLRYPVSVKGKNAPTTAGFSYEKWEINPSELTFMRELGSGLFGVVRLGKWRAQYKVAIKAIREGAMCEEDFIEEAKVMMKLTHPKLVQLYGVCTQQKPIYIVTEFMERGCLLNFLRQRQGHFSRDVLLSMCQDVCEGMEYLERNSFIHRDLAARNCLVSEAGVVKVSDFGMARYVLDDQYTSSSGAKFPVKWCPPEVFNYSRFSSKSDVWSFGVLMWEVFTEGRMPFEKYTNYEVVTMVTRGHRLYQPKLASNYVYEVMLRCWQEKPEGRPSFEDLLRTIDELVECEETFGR
Experimental: as §1

Sequence of SRC (P12931 whole entry): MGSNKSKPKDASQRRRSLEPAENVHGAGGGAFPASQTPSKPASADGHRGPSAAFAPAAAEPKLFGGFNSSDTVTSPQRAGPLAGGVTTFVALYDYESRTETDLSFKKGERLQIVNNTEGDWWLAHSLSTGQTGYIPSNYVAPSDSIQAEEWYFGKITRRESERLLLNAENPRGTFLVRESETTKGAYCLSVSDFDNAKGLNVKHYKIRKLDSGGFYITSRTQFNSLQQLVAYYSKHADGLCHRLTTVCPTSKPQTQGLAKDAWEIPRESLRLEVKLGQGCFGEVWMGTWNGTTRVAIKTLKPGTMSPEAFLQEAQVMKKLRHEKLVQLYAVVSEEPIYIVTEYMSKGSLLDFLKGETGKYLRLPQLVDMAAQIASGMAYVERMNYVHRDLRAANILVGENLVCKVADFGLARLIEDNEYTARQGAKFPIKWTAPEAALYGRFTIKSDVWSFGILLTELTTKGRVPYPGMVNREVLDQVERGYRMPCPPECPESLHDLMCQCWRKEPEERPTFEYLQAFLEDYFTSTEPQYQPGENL
T1 sequence (Q06187 whole entry): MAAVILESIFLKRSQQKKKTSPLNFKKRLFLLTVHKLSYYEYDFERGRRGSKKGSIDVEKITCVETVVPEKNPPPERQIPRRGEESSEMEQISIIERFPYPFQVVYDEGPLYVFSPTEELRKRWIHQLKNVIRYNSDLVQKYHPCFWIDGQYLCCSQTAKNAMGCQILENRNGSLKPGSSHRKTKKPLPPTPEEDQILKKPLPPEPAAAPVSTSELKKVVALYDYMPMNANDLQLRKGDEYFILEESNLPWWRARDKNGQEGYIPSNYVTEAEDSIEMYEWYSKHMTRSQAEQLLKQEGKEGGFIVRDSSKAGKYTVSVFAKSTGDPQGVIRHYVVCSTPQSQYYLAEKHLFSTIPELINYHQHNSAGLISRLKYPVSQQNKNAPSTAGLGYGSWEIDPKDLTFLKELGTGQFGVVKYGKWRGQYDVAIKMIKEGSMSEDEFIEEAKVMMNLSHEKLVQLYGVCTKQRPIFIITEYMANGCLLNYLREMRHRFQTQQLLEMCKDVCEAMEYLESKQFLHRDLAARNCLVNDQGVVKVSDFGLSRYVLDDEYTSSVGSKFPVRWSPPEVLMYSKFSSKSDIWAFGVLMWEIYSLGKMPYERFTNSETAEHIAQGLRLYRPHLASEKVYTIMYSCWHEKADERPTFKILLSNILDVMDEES

Compound | IC50 (BTK-WT) [nM] | IC50 (ITK) [nM] | IC50 (SRC) [nM] | IC50 (TEC) [nM]
CC(C)n1ccc(C(=O)N[C@@H]2CCCN(c3cnc(C(N)=O)c(Nc4cnn(C)c4)n3)[C@@H]2C)cc1=O [Example D-35, 3-[(1-methyl-1H-pyrazol-4-yl)amino]-5-[(2R,3R)-2-methyl-3-[2-oxo-1-(propan-2-yl)-1,2-dihydropyridine-4-amido]piperidin-1-yl]pyrazine-2-carboxamide] | ≤ 10 | 1000 to 10000 | 10 to 100 | 10 to 100
C[C@@H]1[C@H](N2Cc3cc(C4CC4)ccc3C2=O)CCCN1c1cnc(C(N)=O)c(Nc2cnn(C)c2)n1 [Example D-36, 5-[(2R,3R)-3-(5-cyclopropyl-1-oxo-2,3-dihydro-1H-isoindol-2-yl)-2-methylpiperidin-1-yl]-3-[(1-methyl-1H-pyrazol-4-yl)amino]pyrazine-2-carboxamide] | ≤ 10 | 100 to 1000 | 100 to 1000 | ≤ 10
C[C@@H]1[C@H](N2CCN(C)C2=O)CCCN1c1cnc(C(N)=O)c(Nc2ccc(C3(C)CCN(C4CC4)CC3)cc2)n1 [Example D-38, 3-{[4-(1-cyclopropyl-4-methylpiperidin-4-yl)phenyl]amino}-5-[(2R,3R)-2-methyl-3-(3-methyl-2-oxoimidazolidin-1-yl)piperidin-1-yl]pyrazine-2-carboxamide] | ≤ 10 | 10 to 100 | 10 to 100 | 10 to 100
Cn1cc(Nc2nc(N3CCC[C@@H](NC(=O)c4ccc(C(C)(C)O)cc4)C3)nnc2C(N)=O)cn1 [Example D-39, 3-[(3R)-3-[4-(2-hydroxypropan-2-yl)benzamido]piperidin-1-yl]-5-[(1-methyl-1H-pyrazol-4-yl)amino]-1,2,4-triazine-6-carboxamide] | ≤ 10 | 100 to 1000 | 100 to 1000 | 10 to 100
C[C@@H]1[C@H](NC(=O)c2ccc(C(C)(C)O)nc2)CCCN1c1cnc(C(N)=O)c(Nc2cnn(C)c2)n1 [Example D-40, 5-[(2R,3R)-3-[6-(2-hydroxypropan-2-yl)pyridine-3-amido]-2-methylpiperidin-1-yl]-3-[(1-methyl-1H-pyrazol-4-yl)amino]pyrazine-2-carboxamide] | ≤ 10 | 100 to 1000 | 10 to 100 | ≤ 10
C[C@@H]1[C@H](NC(=O)c2ccc(C(C)(C)O)nc2)CCCN1c1nnc(C(N)=O)c(Nc2cnn(C)c2)n1 [Example D-41, 3-[(2R,3R)-3-[6-(2-hydroxypropan-2-yl)pyridine-3-amido]-2-methylpiperidin-1-yl]-5-[(1-methyl-1H-pyrazol-4-yl)amino]-1,2,4-triazine-6-carboxamide] | ≤ 10 | 100 to 1000 | 10 to 100 | 10 to 100
C[C@@H]1[C@H](NC(=O)c2ccc(C3CC3)cc2)CCCN1c1cnc(C(N)=O)c(Nc2ccc(OC(F)(F)F)cc2)n1 [Example D-42, 5-[(2R,3R)-3-(4-cyclopropylbenzamido)-2-methylpiperidin-1-yl]-3-{[4-(trifluoromethoxy)phenyl]amino}pyrazine-2-carboxamide] | 100 to 1000 | > 10000 | > 10000 | 100 to 1000
Cn1cc(Nc2nc(N3CCC[C@@H]4[C@H]3CCN4C(=O)c3ccc(C4CC4)cc3)cnc2C(N)=O)cn1 [Example D-44, 5-[(3aR,7aR)-1-(4-cyclopropylbenzoyl)-octahydro-1H-pyrrolo[3,2-b]pyridin-4-yl]-3-[(1-methyl-1H-pyrazol-4-yl)amino]pyrazine-2-carboxamide] | 10 to 100 | > 10000 | 1000 to 10000 | 100 to 1000
Cn1cc(Nc2nc(N3CCC[C@H]4[C@@H]3CCN4C(=O)c3ccc(C4CC4)cc3)cnc2C(N)=O)cn1 [Example D-45, 5-[(3aS,7aS)-1-(4-cyclopropylbenzoyl)-octahydro-1H-pyrrolo[3,2-b]pyridin-4-yl]-3-[(1-methyl-1H-pyrazol-4-yl)amino]pyrazine-2-carboxamide] | 10 to 100 | 1000 to 10000 | 1000 to 10000 | 100 to 1000
Cn1cc(Nc2nc(N3CCC[C@H]4[C@@H]3CCCN4C(=O)c3ccc(C4CC4)cc3)cnc2C(N)=O)cn1 [Example D-47, 5-[(4aS,8aS)-5-(4-cyclopropylbenzoyl)-decahydro-1,5-naphthyridin-1-yl]-3-[(1-methyl-1H-pyrazol-4-yl)amino]pyrazine-2-carboxamide] | 1000 to 10000 | > 10000 | 1000 to 10000 | 1000 to 10000
C[C@@H]1[C@H](NC(=O)c2ccc(C(C)(C)N)cc2)CCCN1c1cnc(C(N)=O)c(Nc2cnn(C)c2)n1 [Example D-51, 5-[(2R,3R)-3-[4-(2-aminopropan-2-yl)benzamido]-2-methylpiperidin-1-yl]-3-[(1-methyl-1H-pyrazol-4-yl)amino]pyrazine-2-carboxamide] | ≤ 10 | 10 to 100 | ≤ 10 | ≤ 10
CC1COc2cc(C(=O)N[C@@H]3CCCN(c4cnc(C(N)=O)c(Nc5cnn(C)c5)n4)[C@@H]3C)ccc2C1 (stereo partly drawn) [Example D-56, 3-[(1-methyl-1H-pyrazol-4-yl)amino]-5-[(2R,3R)-2-methyl-3-(3-methyl-3,4-dihydro-2H-1-benzopyran-7-amido)piperidin-1-yl]pyrazine-2-carboxamide] | ≤ 10 | 100 to 1000 | 10 to 100 | ≤ 10

Now from value to molecule:

IC50 (BTK-WT) [nM] | IC50 (ITK) [nM] | IC50 (SRC) [nM] | IC50 (TEC) [nM] | Compound
10 to 100 | 1000 to 10000 | 100 to 1000 | 10 to 100 | Cn1cc(Nc2nc(N3CCC[C@@H]4[C@H]3CCCN4C(=O)c3ccc(C4CC4)cc3)cnc2C(N)=O)cn1 [Example D-46, 5-I[(4aR,8aR)-5-(4-cyclopropylbenzoyl)-decahydro-1,5-naphthyridin-1-yl]-3-[(1-methyl-1H-pyrazol-4-yl)amino]pyrazine-2-carboxamide]
10 to 100 | > 10000 | 100 to 1000 | 10 to 100 | C[C@@H]1[C@H](NC(=O)c2ccc(C3CC3)nc2)CCCN1c1cnc(C(N)=O)c(Nc2ccc(OC3CCC(F)(F)CC3)cc2)n1 [Example D-48, 5-[(2R,3R)-3-(6-cyclopropylpyridine-3-amido)-2-methylpiperidin-1-yl]-3-({4-[(4,4-difluorocyclohexyl)oxy]phenyl}amino)pyrazine-2-carboxamide]
10 to 100 | 100 to 1000 | 100 to 1000 | 100 to 1000 | C[C@@H]1[C@H](NC(=O)N(C)C)CCCN1c1cnc(C(N)=O)c(Nc2ccc(N3CCN(C)CC3)cc2F)n1 [Example D-52, 5-[(2R,3R)-3-[(dimethylcarbamoyl)amino]-2-methylpiperidin-1-yl]-3-{[2-fluoro-4-(4-methylpiperazin-1-yl)phenyl]amino}pyrazine-2-carboxamide]
10 to 100 | 100 to 1000 | 100 to 1000 | 10 to 100 | C[C@@H]1[C@H](NC(=O)N(C)C)CCCN1c1cnc(C(N)=O)c(Nc2cn[nH]c2)n1 [Example D-53, 5-[(2R,3R)-3-[(dimethylcarbamoyl)amino]-2-methylpiperidin-1-yl]-3-[(1H-pyrazol-4-yl)amino]pyrazine-2-carboxamide]
≤ 10 | 100 to 1000 | 10 to 100 | ≤ 10 | C[C@@H]1[C@H](NC(=O)c2ccc3c(c2)C(C)(C)CO3)CCCN1c1cnc(C(N)=O)c(Nc2cnn(C)c2)n1 [Example D-55, 5-[(2R,3R)-3-(3,3-dimethyl-2,3-dihydro-1-benzofuran-5-amido)-2-methylpiperidin-1-yl]-3-[(1-methyl-1H-pyrazol-4-yl)amino]pyrazine-2-carboxamide]
≤ 10 | 100 to 1000 | 10 to 100 | 10 to 100 | C[C@@H]1[C@H](NC(=O)c2cnn(C(C)(C)C)c2)CCCN1c1cnc(C(N)=O)c(Nc2cnn(C)c2)n1 [Example D-57, 5-[(2R,3R)-3-(1-tert-butyl-1H-pyrazole-4-amido)-2-methylpiperidin-1-yl]-3-[(1-methyl-1H-pyrazol-4-yl)amino]pyrazine-2-carboxamide]
